# Laboratory results taken from PubChem BioAssay AID328 (DTP/NCI, 2004).
# “And” between values parts separate entries of the source, which are not always exact repeats. Equal entries are not always repeated. Inconclusive results and toxic doses are left out.
# System: BDF1 mice, P388 leukemia ip, median survival T/C
# Assay: NCI In Vivo Anticancer Drug Screen. Data for tumor model P388 Leukemia (intraperitoneal) in B6D2F1 (BDF1) mice
# Settings: endpoint: median survival time, higher = longer survival
# How it was run: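 In tumour-bearing mice, survival after compound treatment is set against the vehicle group and given as a quotient.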
# [1] = dose: 25.0 mg/kg/injection, schedule: Q01DX009 (ip), vehicle: saline with Tween-80
# [2] = dose: 50.0 mg/kg/injection, schedule: Q01DX009 (ip), vehicle: saline with Tween-80
# [3] = dose: 100.0 mg/kg/injection, schedule: Q01DX009 (ip), vehicle: saline with Tween-80
# [4] = dose: 200.0 mg/kg/injection, schedule: Q01DX009 (ip), vehicle: saline with Tween-80
# [5] = dose: 50.0 mg/kg/injection, schedule: Q01DX009 (ip), vehicle: saline
# [6] = dose: 100.0 mg/kg/injection, schedule: Q01DX009 (ip), vehicle: saline
# [7] = dose: 100.0 mg/kg/injection, schedule: Q04DX003 (ip), vehicle: saline
# [8] = dose: 100.0 mg/kg/injection, schedule: Q01DX001 (ip), vehicle: saline with Tween-80
# [9] = dose: 200.0 mg/kg/injection, schedule: Q01DX001 (ip), vehicle: saline with Tween-80
# [10] = dose: 400.0 mg/kg/injection, schedule: Q01DX001 (ip), vehicle: saline with Tween-80
# [11] = dose: 50.0 mg/kg/injection, schedule: Q04DX003 (ip), vehicle: saline
# [12] = dose: 100.0 mg/kg/injection, schedule: Q04DX003 (ip), vehicle: saline with Tween-80
# [13] = dose: 200.0 mg/kg/injection, schedule: Q04DX003 (ip), vehicle: saline with Tween-80
# [14] = dose: 400.0 mg/kg/injection, schedule: Q04DX003 (ip), vehicle: saline with Tween-80
# [15] = dose: 100.0 mg/kg/injection, schedule: Q04DX003 (ip), vehicle: Klucel (hydroxypropylcellulose) (HPC)
# [16] = dose: 200.0 mg/kg/injection, schedule: Q04DX003 (ip), vehicle: Klucel (hydroxypropylcellulose) (HPC)
structure (smiles),measurement,setting,value
Cc1ccc2c[n+]3cc4ccccc4cc3cc2c1,T/C,"dose: 1.56 mg/kg/injection, schedule: Q01DX009 (ip), vehicle: saline",113 % of control
same,T/C,"dose: 4.5 mg/kg/injection, schedule: Q04DX003 (ip), vehicle: saline",113 % of control
same,T/C,"dose: 4.6 mg/kg/injection, schedule: Q01DX009 (ip), vehicle: saline",150 % of control
same,T/C,"dose: 9.0 mg/kg/injection, schedule: Q04DX003 (ip), vehicle: saline",86 % of control
CCCCCCC(=O)/C=C/c1c(Cl)cccc1Cl,T/C,[1],91 % of control
same,T/C,[2],112 % of control
same,T/C,[3],103 % of control and 108 % of control
same,T/C,[4],116 % of control
CCN(CC)CC(C)OC(=O)c1ccc(N)cc1 (stereo not given),T/C,"dose: 33.0 mg/kg/injection, schedule: Q01DX009 (ip), vehicle: saline",92 % of control
same,T/C,[5],100 % of control
same,T/C,"dose: 75.0 mg/kg/injection, schedule: Q01DX009 (ip), vehicle: saline",104 % of control
same,T/C,[6],100 % of control
same,T/C,[7],95 % of control
same,T/C,"dose: 200.0 mg/kg/injection, schedule: Q04DX003 (ip), vehicle: saline",86 % of control
COc1ccc(Cl)cc1NC1=CC(c2ccc(Cl)cc2)OC1=O (stereo not given),T/C,[8],100 % of control
same,T/C,[9],100 % of control
same,T/C,[10],95 % of control
Oc1ccccc1OB(Oc1ccccc1O)N(CCCl)CCCl,T/C,"dose: 8.1 mg/kg/injection, schedule: Q01DX009 (ip), vehicle: Klucel (hydroxypropylcellulose) (HPC)",122 % of control
same,T/C,"dose: 16.5 mg/kg/injection, schedule: Q04DX003 (ip), vehicle: saline",86 % of control
same,T/C,"dose: 18.5 mg/kg/injection, schedule: Q01DX009 (ip), vehicle: Klucel (hydroxypropylcellulose) (HPC)",170 % of control
same,T/C,"dose: 24.75 mg/kg/injection, schedule: Q04DX003 (ip), vehicle: saline",150 % of control
same,T/C,"dose: 28.12 mg/kg/injection, schedule: Q01DX009 (ip), vehicle: Klucel (hydroxypropylcellulose) (HPC)",190 % of control and 195 % of control
same,T/C,"dose: 40.0 mg/kg/injection, schedule: Q01DX009 (ip), vehicle: Klucel (hydroxypropylcellulose) (HPC)",165 % of control
same,T/C,"dose: 49.5 mg/kg/injection, schedule: Q04DX003 (ip), vehicle: saline",150 % of control
same,T/C,[11],119 % of control
O=CCC(O)C(O)C(O)CO (stereo not given),T/C,"dose: 94.0 mg/kg/injection, schedule: Q01DX010 (ip), vehicle: saline",100 % of control
same,T/C,"dose: 188.0 mg/kg/injection, schedule: Q01DX010 (ip), vehicle: saline",100 % of control
same,T/C,"dose: 375.0 mg/kg/injection, schedule: Q01DX010 (ip), vehicle: saline",113 % of control
same,T/C,"dose: 750.0 mg/kg/injection, schedule: Q01DX010 (ip), vehicle: saline",100 % of control
CCOC(=O)/C(C#N)=N\O,T/C,"dose: 25.0 mg/kg/injection, schedule: Q01DX009 (ip), vehicle: saline",100 % of control
same,T/C,"dose: 25.0 mg/kg/injection, schedule: Q04DX003 (ip), vehicle: saline",113 % of control
same,T/C,[5],120 % of control
same,T/C,[11],104 % of control
same,T/C,[7],95 % of control
CCOC(=O)c1cnc(SCc2ccccc2Cl)nc1N1CC1,T/C,"dose: 10.6 mg/kg/injection, schedule: Q01DX009 (ip), vehicle: Klucel (hydroxypropylcellulose) (HPC)",108 % of control
same,T/C,"dose: 28.05 mg/kg/injection, schedule: Q01DX009 (ip), vehicle: Klucel (hydroxypropylcellulose) (HPC)",114 % of control
same,T/C,"dose: 63.75 mg/kg/injection, schedule: Q01DX009 (ip), vehicle: Klucel (hydroxypropylcellulose) (HPC)",152 % of control
CCOC(=O)C(=CN1CCCC1)C(=O)OCC,T/C,[12],100 % of control
same,T/C,[13],100 % of control
same,T/C,[14],109 % of control
COc1cc(C=O)c(C=O)cc1OC,T/C,"dose: 6.25 mg/kg/injection, schedule: Q04DX003 (ip), vehicle: saline with Tween-80",110 % of control
same,T/C,"dose: 12.5 mg/kg/injection, schedule: Q04DX003 (ip), vehicle: saline with Tween-80",106 % of control
same,T/C,"dose: 25.0 mg/kg/injection, schedule: Q04DX003 (ip), vehicle: saline with Tween-80",106 % of control
same,T/C,[12],97 % of control
CC1(C(Cl)(Cl)Cl)C=CC(=O)C=C1,T/C,"dose: 6.25 mg/kg/injection, schedule: Q01DX009 (ip), vehicle: saline with Tween-80",110 % of control
same,T/C,"dose: 12.5 mg/kg/injection, schedule: Q01DX009 (ip), vehicle: saline with Tween-80",115 % of control
same,T/C,[1],98 % of control
same,T/C,[2],107 % of control
BrC1CC(Br)c2c1c1c(c3c2C(Br)CC3Br)C(Br)CC1Br (stereo not given),T/C,[4],90 % of control
CCC[CH2][Sn]1([CH2]CCC)[O]OC(C)(CC)[O]1 (stereo not given),T/C,"dose: 0.69 mg/kg/injection, schedule: Q01DX009 (ip), vehicle: saline with Tween-80",108 % of control
same,T/C,"dose: 1.04 mg/kg/injection, schedule: Q01DX009 (ip), vehicle: saline with Tween-80",104 % of control
same,T/C,"dose: 1.56 mg/kg/injection, schedule: Q01DX009 (ip), vehicle: saline with Tween-80",120 % of control
same,T/C,"dose: 2.35 mg/kg/injection, schedule: Q01DX009 (ip), vehicle: saline with Tween-80",104 % of control
NC(=O)c1nnc2cccc(Cl)n12,T/C,[8],112 % of control
same,T/C,[9],103 % of control
same,T/C,[10],96 % of control
NC(CSC(c1ccccc1)(c1ccccc1)c1ccccc1)C(=O)NCC(=O)O (stereo not given),T/C,"dose: 177.0 mg/kg/injection, schedule: Q01DX009 (ip), vehicle: saline with Tween-80",111 % of control
same,T/C,"dose: 400.0 mg/kg/injection, schedule: Q01DX009 (ip), vehicle: saline with Tween-80",107 % of control
O=C(Cl)c1cc2ccccc2o1,T/C,[8],91 % of control
same,T/C,[9],108 % of control
same,T/C,[10],91 % of control
COC(OC)c1[nH]c(=S)[nH]c(=O)c1Cc1ccccc1,T/C,[12],104 % of control
same,T/C,[13],112 % of control
same,T/C,[14],112 % of control
O=c1[nH]c(C(F)(F)F)nc2c1nc1n2CCC1,T/C,[12],104 % of control
same,T/C,[13],100 % of control
same,T/C,[14],100 % of control
CSCSCC(NS(=O)(=O)c1ccc(C)cc1)C(=O)O (stereo not given),T/C,[12],104 % of control
same,T/C,[13],109 % of control
same,T/C,[14],100 % of control
CC[C@H](CC[C@@H](C)[C@H]1CC[C@H]2[C@@H]3CC=C4C[C@@H](O)CC[C@]4(C)[C@H]3CC[C@]12C)C(C)C,T/C,[15],100 % of control
same,T/C,[16],86 % of control
same,T/C,"dose: 400.0 mg/kg/injection, schedule: Q04DX003 (ip), vehicle: Klucel (hydroxypropylcellulose) (HPC)",100 % of control
CCN1c2ccccc2CC(C#N)(CCN(C)C)c2ccccc21 (stereo not given),T/C,[3],100 % of control
OCCN(CCO)c1cc(/C=C/c2ccnc3ccccc23)nc2ccccc12,T/C,[2],89 % of control
same,T/C,[3],89 % of control
same,T/C,[4],91 % of control
NN=C(NN)NN,T/C,[5],105 % of control
same,T/C,[6],105 % of control
same,T/C,"dose: 200.0 mg/kg/injection, schedule: Q01DX009 (ip), vehicle: saline",96 % of control
C/C=C1/C[C@@H](C)[C@@](C)(O)C(=O)OCC2=CCN3CC[C@@H](OC1=O)[C@@H]23,T/C,"dose: 7.5 mg/kg/injection, schedule: Q01DX010 (ip), vehicle: steriod suspending solution",109 % of control
same,T/C,"dose: 15.0 mg/kg/injection, schedule: Q01DX010 (ip), vehicle: steriod suspending solution",100 % of control
same,T/C,"dose: 30.0 mg/kg/injection, schedule: Q01DX010 (ip), vehicle: steriod suspending solution",100 % of control
same,T/C,"dose: 60.0 mg/kg/injection, schedule: Q01DX010 (ip), vehicle: steriod suspending solution",95 % of control and 109 % of control
CCCN(CCC)c1ccc(C=O)cc1,T/C,"dose: 50.0 mg/kg/injection, schedule: Q04DX003 (ip), vehicle: Klucel (hydroxypropylcellulose) (HPC)",100 % of control
same,T/C,[15],105 % of control
same,T/C,[16],94 % of control
CC(C)CCCC(=O)CCCCCCC(=O)CCN(O)C(=O)C(N)CO (stereo not given),T/C,"dose: 6.25 mg/kg/injection, schedule: Q01DX009 (ip), vehicle: Klucel (hydroxypropylcellulose) (HPC)",98 % of control
same,T/C,"dose: 12.5 mg/kg/injection, schedule: Q01DX009 (ip), vehicle: Klucel (hydroxypropylcellulose) (HPC)",94 % of control
same,T/C,"dose: 25.0 mg/kg/injection, schedule: Q01DX009 (ip), vehicle: Klucel (hydroxypropylcellulose) (HPC)",94 % of control
CN1C(=O)c2ccccc2CC12c1ccccc1C(=O)N2C (stereo not given),T/C,"dose: 50.0 mg/kg/injection, schedule: Q01DX005 (ip), vehicle: saline with Tween-80",86 % of control
same,T/C,"dose: 200.0 mg/kg/injection, schedule: Q01DX005 (ip), vehicle: saline with Tween-80",86 % of control
CSCSCC(CO)NS(=O)(=O)c1ccc(C)cc1 (stereo not given),T/C,[12],100 % of control
same,T/C,[13],100 % of control
same,T/C,[14],100 % of control
